This note sets out measurements from paper doi:10.1101/2023.10.02.560523v1, “Quantitative target engagement of RIPK1 in human whole blood via the cellular thermal shift assay for potential pre-clinical and clinical applications” (biorxiv, 2023).

The experiment has as its target T1, RIPK1 (receptor interacting serine/threonine-protein kinase 1) (Homo sapiens, UniProt Q13546).
T1 construct: endogenous untagged full-length protein in unprocessed human whole blood of healthy donors
T1 sequence (Q13546 1-671): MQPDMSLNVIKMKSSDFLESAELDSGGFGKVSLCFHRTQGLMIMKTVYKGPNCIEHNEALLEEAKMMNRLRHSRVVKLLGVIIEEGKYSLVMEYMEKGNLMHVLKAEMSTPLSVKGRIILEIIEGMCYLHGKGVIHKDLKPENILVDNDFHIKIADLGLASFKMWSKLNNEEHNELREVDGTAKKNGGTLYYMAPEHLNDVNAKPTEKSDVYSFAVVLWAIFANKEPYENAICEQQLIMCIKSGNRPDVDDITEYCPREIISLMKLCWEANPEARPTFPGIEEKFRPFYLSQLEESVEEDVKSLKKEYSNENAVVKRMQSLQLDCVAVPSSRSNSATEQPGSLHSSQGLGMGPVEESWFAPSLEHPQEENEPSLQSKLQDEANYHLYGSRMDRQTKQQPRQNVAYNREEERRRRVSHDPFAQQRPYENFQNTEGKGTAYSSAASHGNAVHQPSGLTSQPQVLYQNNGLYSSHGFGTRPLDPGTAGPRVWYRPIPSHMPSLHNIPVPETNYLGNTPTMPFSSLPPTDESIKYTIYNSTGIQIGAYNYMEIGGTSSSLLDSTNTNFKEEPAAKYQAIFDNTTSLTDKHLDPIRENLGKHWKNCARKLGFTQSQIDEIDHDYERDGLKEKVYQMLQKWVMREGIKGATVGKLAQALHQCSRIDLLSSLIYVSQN
The experiment in a line: MSD TEAR1 occupancy immunoassay, human whole blood. The class given is cell-based. Particulars: 1 h at 37 °C with compound, no heating; N=1 donor; unreliable. The source says:
MSD TEAR1 occupancy immunoassay, human whole blood on RIPK1 (receptor interacting serine/threonine-protein kinase 1)

Consider `COc1ccc(-n2c(SCC#N)nc3sc4c(c3c2=O)CCCC4)cc1` [necrostatin 5], for which the EC50 (in general, the concentration giving half of the maximal effect) was 0.34 µM.
